Reference: article PMC8506611, “Discovery and Characterization of Novel Antagonists of the Proinflammatory Orphan Receptor GPR84” (ACS Pharmacology & Translational Science, 2021)
Where “and” joins values, the source holds several entries; their conditions need not be identical. Equal values may be shown once. Values belong to the compound of their own block, whether it stands above or below them.

Experiments:
[1] = biological target: T1, human GPR84-Gαi2 fusion protein (Homo sapiens, UniProt Q9NQS5); test: [^35S]GTPγS binding assay, membranes of Flp-In TREx 293 cells expressing human GPR84-Gαi2; assay type: biochemical; details: for pA2: Gaddum/Schild analysis, shifts in potency of 2-HTP, mean ± SEM; for Gaddum/Schild slope: Schild plots versus 2-HTP
Experimental: (§1) All data are presented as means ± SEM of at least three independent experiments. Data analysis and curve fitting was carried out using the GraphPad Prism software package version 8 (GraphPad, San Diego). […] In case of inhibition experiments with antagonists, an equivalent analysis was followed to fit an inverse sigmoidal curve. To perform the statistical analysis of curve parameters, data from multiple experiments were fitted independently and resulting curve fit values were analyzed with indicated tests. Antagonism experiments carried out with multiple defined concentrations of antagonist were fit to a global Gaddum/Schild EC50 shift equation to estimate pA2 values for the antagonist. For radioligand binding data, saturation binding curves were generated by fitting the specific binding, which was obtained by subtracting nonspecific from total binding, to a one site specific binding model that allows calculation of Kd values for the radioligand at wild-type and mutant receptors.

[2] = system: Ala^102Thr, Gly^363Ser human GPR84; test: [^3H]140 binding assay, Ala102Thr-Gly363Ser human GPR84-Gαi2
Experimental: (§2) The Stratagene QuikChange method (Stratagene, Agilent Technologies, Santa Clara, CA) was used to introduce alterations into FLAG-human GPR84-Gαi2 or FLAG-mouse GPR84-Gαi2. Primers utilized for mutagenesis were provided by MWG Operon (Acton, UK). Template DNA was digested with DpnI to leave only the newly synthesized mutated plasmid, and sequencing was carried out to confirm the introduction of the alterations.
(§3) Binding was initiated by the addition of membranes (5 μg of protein per tube). All assays were performed at 25 °C for 1 h before termination by the addition of ice-cold PBS and vacuum filtration through GF/C glassfibre filter-bottom 96-well microplates. Plates were washed three times with ice-cold PBS then allowed to dry for 2–3 h at room temperature. MicroScint-20 was added to dried filter plates, and radioactivity was quantified by liquid scintillation spectrometry. Specific binding was defined as the difference between binding detected in the presence and absence of 10 μM compound 020.
All data are presented as means ± SEM of at least three independent experiments. Data analysis and curve fitting was carried out using the GraphPad Prism software package version 8 (GraphPad, San Diego). […] To perform the statistical analysis of curve parameters, data from multiple experiments were fitted independently and resulting curve fit values were analyzed with indicated tests. […]

[3] = system: mouse GPR84-Gαi2 fusion protein; test: [^3H]140 binding assay, membranes expressing mouse GPR84-Gαi2
Experimental: as §3
All data are presented as means ± SEM of at least three independent experiments. Data analysis and curve fitting was carried out using the GraphPad Prism software package version 8 (GraphPad, San Diego). For functional assays the concentration–response data were plotted on a log axis, with the untreated vehicle control plotted at 1 log unit lower than the lowest ligand concentration and fitted to a three parameter sigmoidal curve with the Hill slope constrained to equal 1. In case of inhibition experiments with antagonists, an equivalent analysis was followed to fit an inverse sigmoidal curve. To perform the statistical analysis of curve parameters, data from multiple experiments were fitted independently and resulting curve fit values were analyzed with indicated tests. […]

[4] = system: parental Flp-In TREx 293 cells; test: [^3H]140 binding assay, membranes from parental cells; details: parental cell membranes
Experimental: as §3

[5] = biological target: T2, GPR84 in LPS-treated THP-1 cells (Homo sapiens, UniProt Q9NQS5); test: [^3H]140 binding assay, membranes of LPS-treated THP-1 cells; details: LPS-treated THP-1 membranes
T2 construct: GPR84 expressed endogenously in human-derived cell lines and tissue; endogenous in cells; host or cells: THP-1 cells, 100 ng/mL LPS for 24 h, membranes
Experimental: as §1

[6] = system: mouse GPR84-Gαi2 fusion protein; test: [^35S]GTPγS binding assay, membranes of Flp-In TREx 293 cells expressing mouse GPR84-Gαi2; assay type: biochemical
Experimental: (§4) All data are presented as means ± SEM of at least three independent experiments. Data analysis and curve fitting was carried out using the GraphPad Prism software package version 8 (GraphPad, San Diego). For functional assays the concentration–response data were plotted on a log axis, with the untreated vehicle control plotted at 1 log unit lower than the lowest ligand concentration and fitted to a three parameter sigmoidal curve with the Hill slope constrained to equal 1. In case of inhibition experiments with antagonists, an equivalent analysis was followed to fit an inverse sigmoidal curve. To perform the statistical analysis of curve parameters, data from multiple experiments were fitted independently and resulting curve fit values were analyzed with indicated tests. Antagonism experiments carried out with multiple defined concentrations of antagonist were fit to a global Gaddum/Schild EC50 shift equation to estimate pA2 values for the antagonist. For radioligand binding data, saturation binding curves were generated by fitting the specific binding, which was obtained by subtracting nonspecific from total binding, to a one site specific binding model that allows calculation of Kd values for the radioligand at wild-type and mutant receptors.

[7] = biological target: T3, pig GPR84 (Sus scrofa, UniProt I6WJ99); test: cAMP regulation assay in CHO cells expressing pig GPR84; assay type: cell-based; details: versus EC80 of 6-OAU
T3 construct: expressed in transfected cells

[8] = biological target: macaque GPR84 (Macaca mulatta, UniProt F6W0J1); test: cAMP regulation assay in CHO cells expressing macaque GPR84; assay type: cell-based; details: versus EC80 of 6-OAU
[9] = biological target: T4, dog GPR84 (Canis lupus familiaris, UniProt A0A8I3P3M6); test: cAMP regulation assay in CHO cells expressing dog GPR84; assay type: cell-based; details: versus EC80 of 6-OAU
T4 construct: expressed in transfected cells

[10] = biological target: T5, rat GPR84 (Rattus norvegicus, UniProt D4ACK0); test: cAMP regulation assay in CHO cells expressing rat GPR84; assay type: cell-based; details: versus EC80 of 6-OAU
T5 construct: expressed in transfected cells

[11] = biological target: T6, mouse GPR84 (Mus musculus, UniProt Q8CIM5); test: cAMP regulation assay in CHO cells expressing mouse GPR84; assay type: cell-based; details: versus EC80 of 6-OAU
T6 construct: expressed in transfected cells

[12] = biological target: GPR84 in RAW264.7 cells (Mus musculus, UniProt Q8CIM5); test: [^35S]GTPγS binding assay, membranes of RAW264.7 cells; details: RAW264.7 membranes
[13] = system: Ala^102Thr, Gly^363Ser human GPR84; test: [^35S]GTPγS binding assay, Ala102Thr-Gly363Ser human GPR84 mutant; assay type: biochemical
Experimental: as §2, §4

[14] = biological target: T1, human GPR84-Gαi2 fusion protein; test: cAMP assay in Flp-In TREx 293 cells expressing human GPR84-Gαi2; assay type: cell-based
Experimental: cAMP experiments were performed using Flp-In T-REx293 cells induced to express the receptor of interest or CHO-K1 cells stably expressing the orthologue of interest. Experiments were carried out using a homogeneous time-resolved FRET-based detection kit (CisBio, Codolet, France) according to the manufacturer’s protocol. For the assay cells were plated at 5000 cells/well in low-volume 384-well plates. The ability of agonists to inhibit 1 μM forskolin-induced cAMP production was assessed following a preincubation for 15 min with antagonist compounds, then a further 30 min incubation with agonist compounds. Reactions were stopped according to the manufacturer’s instructions and the output was measured with a PHERAstar FS plate reader (BMG Labtech, Aylesbury, UK).

[15] = biological target: T7, Humanized mGPR84 (Homo sapiens, UniProt Q9NQS5, A294V/A296R/A298P/D231Q/D276G/G248R/H223R/H226Q/I278G/I301T/K216G/K284Q/K289R/K302A/L245V/M286I/N225H/N279I/P291L/P300E/P308T/Q210R/Q299R/Q379H/Q48R/R218H/R229G/R237H/R244G/R282A/R390Q/S280R/S295H/S310A/S311P/V274A); test: Antagonism of 2-HTP at humanized mGPR84 chimera in Flp-In TREx 293 cells; assay type: cell-based; details: all ECL and TMD residues human in mouse backbone
T7 construct: expressed in transfected cells; host or cells: Flp-In TREx 293 cells
Description: (§5) Chimeric human-mouse GPR84-HA constructs were generated using synthetic DNA sequences purchased from Eurofins Genomics (Luxembourg), that were then subcloned in-frame into the BamH1 and Xho1 sites of pcDNA5/FRT/TO.

[16] = biological target: T8, ECL3/TM7 chimeric human/mouse GPR84 (Mus musculus, UniProt Q8CIM5, G345V/R346Q/S363G/V354L); test: Antagonism of 2-HTP at ECL3/TM7 human/mouse GPR84 chimera in Flp-In TREx 293 cells; assay type: cell-based
T8 construct: expressed in transfected cells; host or cells: Flp-In TREx 293 cells
Description: as §5

[17] = system: Thr^102Ala, Ser^363Gly mouse GPR84; test: [^35S]GTPγS binding assay, Thr102Ala-Ser363Gly mouse GPR84 mutant; assay type: biochemical
Experimental: as §2, §4

[18] = biological target: T2, GPR84 in LPS-treated THP-1 cells; test: [^35S]GTPγS binding assay, membranes of LPS-treated THP-1 cells; assay type: biochemical; details: LPS-treated THP-1 membranes

T1 sequence (Q9NQS5 whole entry, the tested form may be a part): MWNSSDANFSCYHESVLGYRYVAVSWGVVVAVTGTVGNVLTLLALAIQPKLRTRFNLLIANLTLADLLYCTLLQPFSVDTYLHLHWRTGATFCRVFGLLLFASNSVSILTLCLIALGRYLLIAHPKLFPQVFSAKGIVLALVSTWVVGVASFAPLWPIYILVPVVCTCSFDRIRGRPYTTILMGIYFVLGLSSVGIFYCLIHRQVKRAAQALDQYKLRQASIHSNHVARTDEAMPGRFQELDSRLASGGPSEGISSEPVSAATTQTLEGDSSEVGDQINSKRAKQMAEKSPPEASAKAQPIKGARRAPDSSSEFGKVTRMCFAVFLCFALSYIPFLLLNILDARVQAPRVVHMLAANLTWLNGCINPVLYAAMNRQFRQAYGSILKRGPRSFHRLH
T1 sequence (P04899 2-355, further chain): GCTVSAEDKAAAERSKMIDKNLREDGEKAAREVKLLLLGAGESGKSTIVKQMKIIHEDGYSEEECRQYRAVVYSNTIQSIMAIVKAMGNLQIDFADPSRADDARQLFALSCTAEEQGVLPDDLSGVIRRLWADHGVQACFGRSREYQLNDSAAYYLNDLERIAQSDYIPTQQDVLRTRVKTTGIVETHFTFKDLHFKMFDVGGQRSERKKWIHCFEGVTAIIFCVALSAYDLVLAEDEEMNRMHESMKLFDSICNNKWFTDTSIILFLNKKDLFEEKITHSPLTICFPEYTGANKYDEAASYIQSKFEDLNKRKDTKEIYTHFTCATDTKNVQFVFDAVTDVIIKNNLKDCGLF
T2 sequence (Q9NQS5 whole entry): as the sequence (Q9NQS5 whole entry, the tested form may be a part) above
T5 sequence (D4ACK0 1-396): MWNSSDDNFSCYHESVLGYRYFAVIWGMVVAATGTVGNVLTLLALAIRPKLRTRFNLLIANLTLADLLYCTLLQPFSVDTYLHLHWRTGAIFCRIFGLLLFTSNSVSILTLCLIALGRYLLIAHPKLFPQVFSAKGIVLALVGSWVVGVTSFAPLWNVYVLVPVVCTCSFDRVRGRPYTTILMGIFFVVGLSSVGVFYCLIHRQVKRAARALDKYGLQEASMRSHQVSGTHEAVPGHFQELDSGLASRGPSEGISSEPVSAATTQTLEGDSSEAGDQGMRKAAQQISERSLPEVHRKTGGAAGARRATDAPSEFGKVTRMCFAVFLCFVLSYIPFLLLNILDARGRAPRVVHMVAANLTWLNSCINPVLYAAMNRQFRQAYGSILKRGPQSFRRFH
T6 sequence (Q8CIM5 whole entry): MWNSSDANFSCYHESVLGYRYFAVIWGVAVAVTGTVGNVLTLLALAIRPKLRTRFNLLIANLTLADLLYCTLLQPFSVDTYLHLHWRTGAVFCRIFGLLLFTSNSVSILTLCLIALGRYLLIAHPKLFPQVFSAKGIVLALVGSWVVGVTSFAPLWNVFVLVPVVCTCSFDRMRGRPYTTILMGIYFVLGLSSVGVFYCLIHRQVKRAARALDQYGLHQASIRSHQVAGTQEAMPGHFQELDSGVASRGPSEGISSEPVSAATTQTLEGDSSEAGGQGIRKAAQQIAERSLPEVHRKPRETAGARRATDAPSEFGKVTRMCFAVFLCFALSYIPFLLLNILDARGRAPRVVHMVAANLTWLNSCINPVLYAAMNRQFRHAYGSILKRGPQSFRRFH
GPR84 in RAW264.7 cells, sequence (Q8CIM5 whole entry): as above
T4 sequence (A0A8I3P3M6 1-393): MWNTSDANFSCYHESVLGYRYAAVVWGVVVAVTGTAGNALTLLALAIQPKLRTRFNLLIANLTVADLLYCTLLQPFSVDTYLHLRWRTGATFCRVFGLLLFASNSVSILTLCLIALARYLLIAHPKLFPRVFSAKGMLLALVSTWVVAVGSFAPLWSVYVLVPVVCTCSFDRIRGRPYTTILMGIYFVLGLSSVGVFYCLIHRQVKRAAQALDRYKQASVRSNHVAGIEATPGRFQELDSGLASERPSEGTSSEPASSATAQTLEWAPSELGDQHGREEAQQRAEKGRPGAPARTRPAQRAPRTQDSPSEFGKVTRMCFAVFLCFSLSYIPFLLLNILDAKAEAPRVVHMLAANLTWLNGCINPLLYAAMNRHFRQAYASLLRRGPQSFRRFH
T8 sequence (Q8CIM5 whole entry G345V/R346Q/V354L/S363G): as the sequence (Q8CIM5 whole entry) above, with G345V, R346Q, V354L, S363G counted along it
macaque GPR84, sequence (F6W0J1 1-396): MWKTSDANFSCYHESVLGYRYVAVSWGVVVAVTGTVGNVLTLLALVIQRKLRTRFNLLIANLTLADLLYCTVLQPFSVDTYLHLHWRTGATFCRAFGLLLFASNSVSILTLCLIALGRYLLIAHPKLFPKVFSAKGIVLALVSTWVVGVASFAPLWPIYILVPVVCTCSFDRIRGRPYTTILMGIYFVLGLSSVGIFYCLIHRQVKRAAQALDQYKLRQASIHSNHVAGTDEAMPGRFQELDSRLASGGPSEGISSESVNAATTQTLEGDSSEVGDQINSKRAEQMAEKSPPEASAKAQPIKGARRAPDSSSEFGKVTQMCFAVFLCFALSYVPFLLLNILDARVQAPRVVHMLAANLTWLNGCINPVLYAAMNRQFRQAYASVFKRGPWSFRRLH
T3 sequence (I6WJ99 1-396): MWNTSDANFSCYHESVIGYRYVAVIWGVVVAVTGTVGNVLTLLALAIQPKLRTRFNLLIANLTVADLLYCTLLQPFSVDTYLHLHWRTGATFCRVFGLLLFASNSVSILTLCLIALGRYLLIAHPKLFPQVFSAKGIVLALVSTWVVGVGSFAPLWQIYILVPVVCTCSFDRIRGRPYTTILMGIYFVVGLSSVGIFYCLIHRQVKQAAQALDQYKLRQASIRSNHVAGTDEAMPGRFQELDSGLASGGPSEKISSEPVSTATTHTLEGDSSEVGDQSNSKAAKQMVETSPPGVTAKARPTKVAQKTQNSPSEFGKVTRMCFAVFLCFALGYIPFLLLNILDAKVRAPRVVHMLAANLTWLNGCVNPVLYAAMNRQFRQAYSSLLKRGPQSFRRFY
T7 sequence (Q9NQS5 with tags, fused parts or gaps with the stated changes): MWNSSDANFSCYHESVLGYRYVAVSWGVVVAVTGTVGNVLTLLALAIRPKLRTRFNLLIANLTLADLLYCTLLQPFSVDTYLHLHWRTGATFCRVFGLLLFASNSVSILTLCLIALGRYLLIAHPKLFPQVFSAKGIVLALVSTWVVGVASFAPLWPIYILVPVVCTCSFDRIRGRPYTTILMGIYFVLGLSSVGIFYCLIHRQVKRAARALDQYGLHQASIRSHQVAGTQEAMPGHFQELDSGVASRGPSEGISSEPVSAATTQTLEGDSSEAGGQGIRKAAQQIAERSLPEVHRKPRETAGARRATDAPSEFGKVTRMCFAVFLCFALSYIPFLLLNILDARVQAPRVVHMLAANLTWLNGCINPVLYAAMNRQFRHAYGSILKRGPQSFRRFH

pA2 [1]: 8.07 ± 0.02
SMILES: Ic1ccc(-c2nnc(Cc3c[nH]c4ccccc34)nc2-c2ccc(I)cc2)cc1 [Compound 441, 3-((5,6-Bis(4-iodophenyl)-1,2,4-triazin-3-yl)methyl)-1H-indole]

SMILES: c1ccc(-c2nnc(Cc3c[nH]c4ccccc34)nc2-c2ccccc2)cc1 [[^3H]140, [^3H]3-((5,6-diphenyl-1,2,4-triazin-3-yl)methyl)-1H-indole]
direct binding [2]: not possible to measure binding
specific binding [3]: unable to detect specific binding
specific binding [4]: no specific binding
Bmax [5]: 905 ± 93 fmol/mg membrane protein

pA2 [1]: 9.19 ± 0.10
Gaddum/Schild slope [1]: 1.27 ± 0.03
SMILES: CC(=O)OCc1ccc(-c2nc(Cc3c[nH]c4ccccc34)nnc2-c2ccccc2)cc1 [Compound 020, 4-(3-((1H-indol-3-yl)methyl)-6-phenyl-1,2,4-triazin-5-yl)benzyl acetate]
pA2 ([6]; Gaddum/Schild analysis versus 2-HTP, wild-type mouse GPR84): < 6.0
fold higher concentrations than required to antagonize human GPR84 ([6]; limited effects at mouse GPR84): at least 1000 fold

SMILES: c1ccc(-c2nnc(Cc3c[nH]c4ccccc34)nc2-c2ccccc2)cc1 [Compound 140, 3-((5,6-Diphenyl-1,2,4-triazin-3-yl)methyl)-1H-indole]
IC50 [7]: 5.6 nM
IC50 [8]: 6.4 nM
IC50 [9]: 8.1 nM
IC50 [10]: 8.7 µM
IC50 [11]: > 10 µM

pA2 [1]: 9.31 ± 0.10
Gaddum/Schild slope [1]: 1.14 ± 0.03
SMILES: CC(=O)OCc1ccc(-c2nnc(Cc3c[nH]c4ccccc34)nc2-c2ccccc2)cc1 [Compound 021, 4-(3-((1H-indol-3-yl)methyl)-5-phenyl-1,2,4-triazin-6-yl)benzyl acetate]

block of 2-HTP-induced [^35S]GTPγS binding [12]: unable to produce such an effect
block of activation by 2-HTP [13]: unable to block
fold lower affinity than at wild-type human GPR84 ([13]; from pA2): 380 fold
pA2 ([13]; versus 2-HTP, mean ± SEM n = 3): 6.33 ± 0.15
block of activation promoted by 2-HTP ([1]; EC80 of 2-HTP): fully block
block of activation promoted by 6-OAU ([1]; EC80 of 6-OAU): fully block
pA2 [1]: 8.90 ± 0.08 and 8.9
Gaddum/Schild slope [1]: 1.11 ± 0.04
IC50 ([1]; against an EC80 of embelin): < 100 nM
reversal of activation produced by DIM ([1]; allosteric activator DIM): fully reversed
block of inhibition of forskolin-amplified cAMP levels by 2-HTP ([14]; 2-HTP): fully blocked
block of inhibition of forskolin-amplified cAMP levels by 6-OAU ([14]; 6-OAU): fully blocked
affinity at humanized chimera compared with wild-type human receptor [15]: equal affinity
IC50 [16]: 363 nM
block of activation by 2-HTP [17]: able to fully block activation by 2-HTP
fold higher affinity than at wild-type mouse GPR84 ([17]; from pA2): at least 5000 fold
fold lower affinity than at wild-type human GPR84 ([17]; from pA2): ~13 fold
pA2 ([17]; versus 2-HTP, mean ± SEM n = 3): 7.78 ± 0.08
SMILES: COc1ccc(-c2nnc(Cc3c[nH]c4ccccc34)nc2-c2ccc(OC)cc2)cc1 [Compound 837, 3-((5,6-Bis(4-methoxyphenyl)-1,2,4-triazin-3-yl)methyl)-1H-indole]
antagonism of mouse GPR84 ([6]; EC80 of 2-HTP): no significant capacity to antagonize
affinity (from pA2) ([6]; wild-type mouse GPR84): < 100 μM
block of 2-HTP-induced [^35S]GTPγS binding [18]: blocked in a concentration-dependent and high potency manner
